System: Human primary melanocytes
Assay: Melanin content assay in α-MSH-stimulated melanocytes
Type: cell-based
Settings: for Melanin Content (%) Average ± SD: 72 h, untreated control (A) = 100
Description: Human primary melanocytes were grown in melanocytes growth medium (MGM) with human melanocyte growth supplement. 500 μL/well (5×10^4 cells/well) of this solution was plated in a 24 wells plate and incubated in an incubator (Thermo Scientific, Model 3111) at 37° C. with 5% CO2 atmosphere.
After 24 h of incubation, cell cultures were treated with the test actives (as outlined in table 1) dissolved in 20% ethanol. After 1 h of actives addition, 10 nM of α-MSH was added. The cells were again incubated for 72 h in an incubator. At the end of this incubation period, the culture medium was replaced with 120 μL/well of melanin content assay reagent (10% Dimethyl sulfoxide in 1 N sodium hydroxide) and incubated for 1 h at 60° C. in a shaker incubator. The supernatant was then transferred to a 384 well plate. The absorbance was measured at 405 nm with a microtiter plate reader (Genios Pro, Tecan M 1000).
In the first set of experiments, human primary melanocytes were subjected to treatments as outlined in table 1 below.

Row | Compound | Melanin Content (%) Average ± SD (4-ER 50 μM, 10 nM α-MSH added 1 h after active, absorbance 405 nm) [%] | Melanin content, comparison in words (10 nM MSH, example 1 vs black tea (example D), example B vs untreated control (example A)) | Melanin Content (%) Average ± SD (MSH 10 nM alone, no test active) [%]
1 | CCc1ccc(O)cc1O [C, 4-ethyl resorcinol] | 68 ± 12.7 | – | –
2 | α-Melanocyte stimulating hormone [B] | – | over and above the control cells | 121 ± 9.7
